Source: patent US6274704A, “Peptides derived from the heparin binding domain of fibronectin” (Hisamitsu Pharmaceutical Co., Inc., priority 1996, dated 2001)
Ends that are not written are not given here.

Columns and labels:
[1] = system: melanoma cell; settings: in vivo; cited from earlier work
[2] = system: A375 melanoma cell; assay: Cell adhesion inhibition activity of synthetic peptides (cell suspension includes the peptide); format: cell-based; settings: Concentration 200 μg/ml; adhesion to fibronectin-coated plate, 60 minutes, 0.2% DMSO
Method: The above synthetic peptides were used in this experiment after being dissolved in dimethyl sulfoxide (DMSO: Wako Jyunyaku Co.). To adjust a condition of each experiment to the same, DMSO was added into phosphate buffers containing urea-non-treated Hep 2 fragment, urea-treated Hep 2 fragment, GRGDSP peptide and phosphate buffer itself as a control, respectively. The concentration of DMSO of each experiment was adjusted to 0.2% of final concentration. Inhibition activity against cell adhesion was evaluated according to the method of Fukai et al. (Biochem. Biophys. Res. Commun., 220, 394-398, 1996). In other words, the inhibition activity against cell adhesion of A375 melanoma cell to a plate was measured under the condition with or without the above various synthetic peptides. A375 melanoma cell (American Type Culture Collection: ATCC) was suspended in Dulbecco's modified eagle medium (DMEM: Gibuco Co.) including 0.1% Ovalbumin (Wako Jyunyaku Co.) to be a concentration of 2×10^5 cells/ml. Before preparing cell suspension, a plate was coated with fibronectin according to the method of Miekka et al. Specifically, phosphate buffer containing 10 μg/ml of fibronectin (FN) was prepared and 100 μl of the resultant phosphate buffer containing fibronectin was added into each well of a 96-well plate and then the plate was incubated at 37° C., 5% CO2 concentration for 60 minutes before being washed with phosphate buffer three times. Fibronectin (FN) was purified according to the method of Miekka et al. (Thromb. Res., 27, 1-14, 1982). One hundred (100) μl of the above cell suspension was added into each well of the plate and the plate was incubated at 37° C., 5% CO2 concentration for 60 minutes (Control was without any synthetic peptide). After fixing cells in each well with 5% of formaldehyde (Wako Jyunyaku Co.), non adhesion cells were removed and calls in five areas selected at random in each well were counted by the use of a microscope.
The addition of Hep 2 fragment and each peptide was carried out by the step in which a solution containing Hep 2 fragment or each peptides dissolved with high concentration was added to the cell suspension to obtain the final concentration of Hep 2 fragment or each peptides shown in Table 1.

[3] = system: A375 melanoma cell; assay: Cell adhesion inhibition activity (plate coated with fibronectin solution containing KLH modified synthetic peptide); format: cell-based; settings: Experiment 2, KLH modified peptides coated with fibronectin, FIG. 3
Method: The above various KLH modified synthetic peptides were added to a solution containing fibronectin to obtain a given concentration, then the procedure of Experiment 1 were repeated with the exception that the resultant solution were added into 96-well plate to coat it. The experiment without any synthetic peptide is a control (the concentration of a peptide was 0 μg/m 1).

Substance	Cell adhesion inhibition activity [2]	further results
GRGDS	–	inhibition of experimental metastasis of melanoma cell to lung [1]: inhibits experimental metastasis of melanoma cell to lung
III 12-1: peptide consisting of SEQ ID NO:1, part of Hep 2 fragment (AIPAPTDLKFTQVTPTSLSAQWTPPNVQLTG)	11%	–
III 12-2: peptide consisting of SEQ ID NO:2, part of Hep 2 fragment (INLAPDSSSVVVSGLMVATKWE)	13%	–
III 12-3: peptide consisting of SEQ ID NO:3, part of Hep 2 fragment (VSVYALKDTLTSRPAQGVVTTLE)	7%	–
III 13-1: peptide consisting of SEQ ID NO:4, part of Hep 2 fragment (NVSPPRRARVTDATETTITISWRTKTETI)	4%	–
III 13-2: peptide consisting of SEQ ID NO:5, part of Hep 2 fragment (TGFQVDAVPANGQTPIQRTIKPDVR)	11%	–
III 13-3: peptide consisting of SEQ ID NO:6, part of Hep 2 fragment (SYTITGLQPGTDYKIYLYTLNDNAR)	9%	–
III 14-1: peptide consisting of SEQ ID NO:7, part of Hep 2 fragment (NLRFLATTPNSLLVSWQPPRARITGYIIK)	11%	–
III 14-2A: peptide of sequence ID NO:10, a part of peptide III 14-2; tested KLH modified (RPRPGVTEATITG; also: KLH conjugated)	–	cell adhesion inhibition activity (in words) [3]: very little cell adhesion inhibition activity
III 14-2B: peptide of sequence ID NO:11, a part of peptide III 14-2; tested KLH modified (LEPGTEYTIYVIALKNNQK; also: KLH conjugated)	–	cell adhesion inhibition activity (in words) [3]: the same strong cell adhesion inhibition activity as that of the peptide III 14-2
III 14-2C: peptide of sequence ID NO:12, a part of peptide III 14-2; tested KLH modified (YTIYVIALKNNQK; also: KLH conjugated)	–	cell adhesion inhibition activity (in words) [3]: the same strong cell adhesion inhibition activity as that of the peptide III 14-2
